Where a name gives a salt, the structure may show the parent alone. Read-outs that look alike come from different tables or passages of the source.
Columns and labels:
[1] = target: YAP-TEAD protein interaction (His-TEAD1 (209-426) protein, Bio-YAP peptide (60-100)) (Homo sapiens, UniProt P28347); test: YAP-TEAD protein interaction HTRF experiment; format: binding; details: His-TEAD1 (209-426) 10 nM, Bio-YAP peptide 50 nM, read-out: Activity of each compound in blocking YAP-TEAD protein interaction (grades of IC50 values)
Sequence of YAP-TEAD protein interaction (His-TEAD1 (209-426) protein, Bio-YAP peptide (60-100)) (P28347 209-426): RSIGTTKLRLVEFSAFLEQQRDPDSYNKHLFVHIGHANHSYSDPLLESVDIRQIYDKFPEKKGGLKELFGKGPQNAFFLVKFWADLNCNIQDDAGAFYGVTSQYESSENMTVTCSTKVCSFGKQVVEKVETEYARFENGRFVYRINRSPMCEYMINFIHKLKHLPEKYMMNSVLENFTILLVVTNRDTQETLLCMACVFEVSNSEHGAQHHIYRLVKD
Protocol: In this example, the YAP-TEAD protein interaction HTRF experiment was used to detect the activity of each compound in blocking the YAP-TEAD protein interaction.
The experiment was carried out according to the following operation steps:
Step 1: His-TEAD1 (209-426) protein was added to a 384-well detection white plate to a final concentration of 10 nM, and buffer was used as the background signal well. The compounds to be tested were subjected to 3-fold dilution and a total of 10 concentration gradients were set up, and each diluted solution was mixed well. A certain volume of the compound to be tested was added to each well separately, 2 replicates were set for each concentration, and the final concentration of DMSO was controlled at 1%. Incubation was carried out at room temperature for 20 minutes. The amino acid sequence of TAED1 (209-426) used in this step is shown in SEQ ID NO: 1:
After mixing evenly, the mixture was incubated at room temperature for 10 minutes.
Step 3: Anti-His-Eu cryptate gold and streptavidin-XL665 were diluted according to the instructions and mixed in equal proportions. A certain volume of the detection reagent was added to the well, and the mixture was incubated at room temperature for 1 hour.
Step 4: The signal was detected using an Envision (Perkin Elmer) microplate reader at an excitation wavelength of 320 nm and emission wavelengths of 665 nm and 620 nm.
Step 5: The signal was calculated based on the ratio of Em665/Em620*10000.
(§1) The inhibition percentage (%) was calculated using the following formula: […]
The half-maximal inhibitory concentration (IC50) values were calculated using GraphPad Prism software.

MSTO-211H cells = test: Cell proliferation inhibition experiment (CellTiter-Glo); format: cell-based; details: 96 hours, read-out: Inhibitory activity of each compound on the proliferation of MSTO-211H cells (grades of IC50 values)
Protocol: In this example, the intracellular ATP was quantitatively determined by the CellTiter-Glo luminescence cell viability detection kit to detect the number of living cells in the culture.
Step 1: MSTO-211H (ATCC, CRL-2081TM) or NCI-H2052 (ATCC, CRL-5915TM) cells were inoculated in a 96-well plate at a density of 1500 cells per well with a volume of 100 μL per well, and the cells were incubated overnight in a 37° C., 5% carbon dioxide incubator. The culture medium used was RPMI1640 medium (GIBCO-A10491-01)+10% FBS (GIBCO-10099141C)+1% penicillin/streptomycin (Pen/Strep) (GIBCO-15070-063).
Step 2: The cells were treated with the compounds to be tested. The compounds to be tested were 3-fold diluted, and a total of 9 concentration gradients were set up; a certain volume of DMSO or the compounds to be tested was added to each well, respectively, and 2 replicates were set up for each concentration, and the final concentration of DMSO was controlled to be no higher than 0.5%. The cells were incubated for 96 hours in a 37° C., 5% carbon dioxide incubator.
Step 3: Cell viability was detected in the control group and treatment group using CellTiter-Glo Luminescent Cell Viability Assay kit (Promega, G7570). 50 μL of CellTiter-Glo was added to each well, mixed well, and incubated at room temperature for 10 minutes. The signal was read using En Vision® Multilabel Plate Reader (Perkin Elmer).
as §1
Using Graphpad Prism software, the IC50 values of the compounds inhibiting the CTG signal of cell proliferation activity was calculated.

Row | Compound | IC50 [1] [nM] | IC50 (MSTO-211H cells; Homo sapiens) [nM] | IC50 (MSTO-211H cells) [nM]
1 | CO[C@H]1C[C@H](CNC[C@@]2(c3ccccc3)Cc3c(cc(F)c(Cl)c3-c3c(C(N)=O)cc4c(c3F)OCc3nn(C)cc3-4)O2)C1 (atropisomer, axis not shown) [Compound 84, (S)-7-((S)-5-Chloro-6-fluoro-2-(((((1r,3S)-3-methoxycyclobutyl)methyl)amino)methyl)-2-phenyl-2,3-dihydrobenzofuran-4-yl)-6-fluoro-2-methyl-2,4-dihydrochromeno[3,4-c]pyrazole-8-carboxamide formate] | < 50 | 200 to 500 | –
2 | NC(=O)c1cc2c(c(F)c1-c1c(Cl)c(F)cc3c1C[C@](c1ccccc1)([C@@H]1CCCN1)O3)Oc1cnn(CC(F)F)c(=O)c1O2 (atropisomer, axis not shown) [Compound 121, (S)-8-((S)-5-Chloro-6-fluoro-2-phenyl-2-((S)-pyrrolidin-2-yl)-2,3-dihydrobenzofuran-4-yl)-9-fluoro-3-(2,2-difluoroethyl)-4-oxo-3,4-dihydrobenzo[5,6][1,4]dioxo[2,3-d]pyridazine-7-carboxamide] | < 50 | 200 to 500 | –
3 | Cn1nc2c(cc1=O)Oc1cc(C(N)=O)c(-c3c(Cl)c(F)cc4c3C[C@](c3ccccc3)([C@@H]3CCCN3)O4)c(F)c1O2 (atropisomer, axis not shown) [Compound 122, (S)-8-((S)-5-Chloro-6-fluoro-2-phenyl-2-((S)-pyrrolidin-2-yl)-2,3-dihydrobenzofuran-4-yl)-9-fluoro-2-methyl-3-oxo-2,3-trihydrobenzo [5,6][1,4]dioxo [2,3-c]pyridazine-7-carboxamide] | < 50 | < 200 | –
4 | CNC(=O)c1cc2c(c(F)c1-c1c(Cl)c(F)cc3c1C[C@](c1ccccc1)([C@@H]1CCCN1)O3)Oc1c(cnn(CC(F)F)c1=O)O2 (atropisomer, axis not shown) [Compound 141, (S)-8-((S)-5-Chloro-6-fluoro-2-phenyl-2-((S)-pyrrolidin-2-yl)-2,3-dihydrobenzofuran-4-yl)-2-(2,2-difluoroethyl)-9-fluoro-N-methyl-1-oxo-1,2-dihydrobenzo[5,6][1,4]dioxo[2,3-d]pyridazine-7-carboxamide] | < 50 | < 200 | –
5 | NC(=O)c1cc2c(c(F)c1-c1c(Cl)c(F)cc3c1C[C@](c1ccccc1)([C@@H]1CCCN1)O3)Oc1c(cnn(CCC(F)(F)F)c1=O)O2 (atropisomer, axis not shown) [Compound 133, (S)-8-((S)-5-Chloro-6-fluoro-2-phenyl-2-((S)-pyrrolidin-2-yl)-2,3-dihydrobenzofuran-4-yl)-9-fluoro-2-(3,3,3-trifluoropropyl)-1-oxo-1,2-dihydrobenzo[5,6][1,4]dioxo[2,3-d]pyridazine-7-carboxamide] | < 50 | < 200 | –
6 | NC(=O)c1cc2c(c(F)c1-c1c(Cl)c(F)cc3c1C[C@](c1ccccc1)([C@@H]1CCCN1)O3)Oc1cnncc1O2 (atropisomer, axis not shown) [Compound 67, (S)-8-((S)-5-Chloro-6-fluoro-2-phenyl-2-((S)-pyrrolidin-2-yl)-2,3-dihydrobenzofuran-4-yl)-9-fluorobenzo[5,6][1,4]dioxo[2,3-d]pyridazine-7-carboxamide] | < 50 | 200 to 500 | –
7 | (S)-8-((S)-5-Chloro-6-fluoro-2-phenyl-2-((S)-pyrrolidin-2-yl)-2,3-dihydrobenzofuran-4-yl)-9-fluoro-3-methyl-4-oxo-3,4-dihydrobenzo[5,6][1,4]dioxo[2,3-d]pyrimidine-7-carboxamide [Compound 127] | < 50 | – | 200 to 500
8 | CNC(=O)c1cc2c(c(F)c1-c1c(Cl)c(F)cc3c1C[C@](c1ccccc1)([C@@H]1CCCN1)O3)OCc1nn(C)cc1-2 (atropisomer, axis not shown) [Compound 39, (S)-7-((S)-5-Chloro-6-fluoro-2-phenyl-2-((S)-pyrrolidin-2-yl)-2,3-dihydrobenzofuran-4-yl)-6-fluoro-N,2-dimethyl-2,4-dihydrochromeno[3,4-c]pyrazole-8-carboxamide] | < 50 | < 200 | –
9 | COCCCNC[C@@]1(c2ccccc2)Cc2c(cc(F)c(Cl)c2-c2c(C(N)=O)cc3c(c2F)OCc2nn(C)cc2-3)O1 (atropisomer, axis not shown) [Compound 83, (S)-7-((S)-5-Chloro-6-fluoro-2-(((3-methoxypropyl)amino)methyl)-2-phenyl-2,3-dihydrobenzofuran-4-yl)-6-fluoro-2-methyl-2,4-dihydrochromeno[3,4-c]pyrazole-8-carboxamide formate] | – | < 200 | –

Now from value to compound, other results behind:

Row | IC50 [1] [nM] | Compound | IC50 (MSTO-211H cells; Homo sapiens) [nM] | IC50 (MSTO-211H cells) [nM]
10 | < 50 | [2H]C1([2H])CC[C@]([2H])([C@@]2(c3ccccc3)Cc3c(cc(F)c(Cl)c3-c3c(C(=O)NC)cc4c(c3F)Oc3c(cnn(CC(F)F)c3=O)O4)O2)N1 (atropisomer, axis not shown) [Compound 156, (S)-8-((S)-5-Chloro-6-fluoro-2-phenyl-2-((S)-pyrrolidin-2-yl-2,5,5-d3)-2,3-dihydrobenzofuran-4-yl)-2-(2,2-difluoroethyl)-9-fluoro-N-methyl-1-oxo-1,2-dihydrobenzo[5,6][1,4]dioxo [2,3-d]pyridazine-7-carboxamide] | < 200 | –
11 | < 50 | NC(=O)c1cc2c(c(F)c1-c1c(Cl)c(F)cc3c1C[C@](c1ccccc1)([C@@H]1CCCN1)O3)OCc1nncn1-2 (atropisomer, axis not shown) [Compound 42, (S)-7-((S)-5-Chloro-6-fluoro-2-phenyl-2-((S)-pyrrolidin-2-yl)-2,3-dihydrobenzofuran-4-yl)-6-fluoro-4H-benzo[b][1,2,4]triazolo[4,3-d][1,4]oxazine-8-carboxamide] | 500 to 5000 | –
12 | < 50 | NC(=O)c1cc2c(c(F)c1-c1c(Cl)c(F)cc3c1C[C@](c1ccccc1)([C@@H]1CCCN1)O3)Oc1c(cnn(C3CC(F)(F)C3)c1=O)O2 (atropisomer, axis not shown) [Compound 147, (S)-8-((S)-5-Chloro-6-fluoro-2-phenyl-2-((S)-pyrrolidin-2-yl)-2,3-dihydrobenzofuran-4-yl)-2-(3,3-difluorocyclobutyl)-9-fluoro-1-oxo-1,2-dihydrobenzo[5,6][1,4]dioxa[2,3-d]pyridazine-7-carboxamide] | < 200 | –
13 | < 50 | CO[C@H]1CC[C@H](NC[C@@]2(c3ccccc3)Cc3c(cc(F)c(Cl)c3-c3c(C(N)=O)cc4c(c3F)OCc3nn(C)cc3-4)O2)CC1 (atropisomer, axis not shown) [Compound 78, (S)-7-((S)-5-Chloro-6-fluoro-2-((((1R,4S)-4-methoxycyclohexyl)amino)methyl)-2-phenyl-2,3-dihydrobenzofuran-4-yl)-6-fluoro-2-methyl-2,4-dihydrochromeno[3,4-c]pyrazole-8-carboxamide] | < 200 | –
14 | < 50 | Cn1ccc2c(c1=O)Oc1cc(C(N)=O)c(-c3c(Cl)c(F)cc4c3C[C@](c3ccccc3)([C@@H]3CCCN3)O4)c(F)c1O2 (atropisomer, axis not shown) [Compound 136, (S)-7-((S)-5-Chloro-6-fluoro-2-phenyl-2-((S)-pyrrolidin-2-yl)-2,3-dihydrobenzofuran-4-yl)-6-fluoro-2-methyl-1-oxo-1,2-dihydrobenzo[5,6][1,4]dioxo[2,3-c]pyridine-8-carboxamide] | < 200 | –
15 | < 50 | NC(=O)c1cc2c(c(F)c1-c1c(Cl)c(F)cc3c1C[C@](c1ccccc1)([C@@H]1CCCN1)O3)Oc1c(N)ncnc1O2 (atropisomer, axis not shown) [Compound 114, (S)-4-Amino-7-((S)-5-chloro-6-fluoro-2-phenyl-2-((S)-pyrrolidin-2-yl)-2,3-dihydrobenzofuran-4-yl)-6-fluorobenzo[5,6][1,4]dioxo [2,3-d]pyrimidine-8-carboxamide] | 500 to 5000 | –

Source: US20250177408A1, “INHIBITOR OF INTERACTION BETWEEN YAP/TAZ AND TEAD, PREPARATION THEREOF, PHARMACEUTICAL COMPOSITION THEREOF AND USE THEREOF” (ETERN BIOPHARMA (SHANGHAI) CO., LTD., priority 2022, published 2025)
